The source of these data is patent publication US12637457B2, “Salt form and crystal form of JAK inhibitor, preparation method therefor, and use thereof” (SHANGHAI FUDAN-ZHANGJIANG BIO-PHARMACEUTICAL CO., LTD., priority 2020, dated 2026).

SMILES strings stand for the structures. Like-named read-outs stand apart in the source and are kept apart here.

Data set [1] in a line: Stability test in stable chamber (temperature and humidity). It is filed as physicochemical. The note with it: for Content of compound shown in formula I: HPLC. How it is done: Whether the temperature and humidity have an impact on the stability of the crystal form A of the hydrochloride hydrate of the compound shown in formula I was tested: […]
The next data set concerns the target T1, JAK2 (Homo sapiens, UniProt O60674).
T1 construct: purchased Carna Biosciences, Inc. 08-045
Put plainly: HTRF in vitro enzyme activity biochemical assay, JAK2. The note with it: 1 mM ATP, 6 ng/mL JAK2. How it is done: (§1) Then, the concentration of the compound diluent was further diluted to 2.5-fold of the final test concentration with the kinase reaction buffer to obtain a compound solution to be tested.
(§2) The enzymatic reaction was initiated by adding a mixture of 2 μL of substrate and 2 μL of ATP prepared in kinase reaction buffer. […] The percentage of inhibition was calculated according to the formula: percentage of inhibition=100%−ratio value of a treated compound/ratio value of a treated DMSO carrier (DMSO carrier was a blank control group without drugs).
(§3) A dose-response curve was generated, and IC50 was calculated by non-linear S-shaped curve fitting using GraphPad Prism software.

Data set [2] in a line: Comparison of thermodynamic stability of crystal forms in saturated ethanol/water solution. The note with it: ethanol/water 9:1 saturated solution, 50° C., stirred 24 hours. The data set is classed as physicochemical. The method, then:
Crystal form A, crystal form E and crystal form F were respectively dissolved in a mixed solvent of ethanol/water (volume ratio=9:1) to prepare a saturated solution. The saturated solution was heated to 50° C., and 10 mg of crystal form A, crystal form E and crystal form F were respectively added with stirring. The mixture was kept at 50° C., stirred for 24 hours, then filtered, and the XRPD of the resulting crystals was respectively determined (XRPD patterns of crystals precipitated by adding crystal forms A, E and F are shown in FIGS. 10, 11 and 12, respectively).

Data set [3] is described as follows: Solubility test in common solvents (visual dissolution). The note with it: 25° C.±5° C., observed within 30 minutes. It is filed as physicochemical. The method, then:
The sample that has been ground into fine powder was weighed and added to a certain volume of solvent (ambient temperature: 25° C.±5° C.), shaken strongly for 30 seconds every 5 minutes, and the dissolution was observed within 30 minutes. If there were no visually visible solute particles or droplets, the sample was regarded as completely dissolved. According to this method, the dissolution of crystal form A of the hydrochloride hydrate of the compound shown in formula I and the free base form of the compound shown in formula I in common solvents was observed, and the results are shown in Table 3.

A further data set addresses T2, JAK1 (Homo sapiens, UniProt P23458).
T2 construct: purchased Invitrogen PV4774
Briefly: HTRF in vitro enzyme activity biochemical assay, JAK1. Conditions: 1 mM ATP, 500 ng/mL JAK1. How it is done:
as §1, §2, §3
A general note: In TR-FRET formats the signal depends on donor and acceptor labels being close together.

A short description of another data set: Single dose PK study. The data set is classed as in vivo. The note with it: female SD rats, single oral dose 3 mg/kg, 0.5% CMC-Na suspension, plasma. The method, then:
Two groups of SD rats (3 females in each group) were given a single oral dose of 3 mg/kg free base of the compound shown in formula I and a single oral dose of 3 mg/kg crystal form A of hydrochloride hydrate of the compound shown in formula I, respectively. The drug was administered as a 0.5% CMC-Na suspension. Samples were taken at different times until 24 hours, and the drug concentration of the compound shown in formula I in plasma was analyzed by LC-MS/MS method, and the final calculation results are shown in Table 8.
Chromatographic Conditions of LC-MS/MS Method for Compound Shown in Formula I:
• instrument model, SHIMADZU LC-30AD liquid phase system; chromatographic column, ACQUITY UPLC® BEH C18 (2.1×50 mm, 1.7 μm); column temperature, 40° C.; injection volume, 1 μL; flow rate of 0.6 mL/min; run time of 6 min; • the mobile phase gradient settings are shown in Table 5.
Instrument model, AB SCIEX TRIPLE QUAD 6500 mass spectrometer; ion source, electrospray (ESI); ionization mode, positive ion scanning; multi-ion (MRM) ion pairs are shown in Table 6; instrument parameters are shown in Table 7.

The next data set has as its target T3, TYK2 (Homo sapiens, UniProt P29597).
T3 construct: purchased Carna Biosciences, Inc. 08-147
T3 sequence (P29597 871-1187 limits assumed): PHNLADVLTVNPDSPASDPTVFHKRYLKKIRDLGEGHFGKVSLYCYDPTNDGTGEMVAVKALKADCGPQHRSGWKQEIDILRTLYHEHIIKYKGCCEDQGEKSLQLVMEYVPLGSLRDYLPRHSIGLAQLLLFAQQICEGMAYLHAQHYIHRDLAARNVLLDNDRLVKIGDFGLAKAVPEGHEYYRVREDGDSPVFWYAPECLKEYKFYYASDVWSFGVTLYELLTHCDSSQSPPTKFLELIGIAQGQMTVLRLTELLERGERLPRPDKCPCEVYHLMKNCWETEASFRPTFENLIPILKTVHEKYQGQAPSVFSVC
Briefly: HTRF in vitro enzyme activity biochemical assay, TYK2. Conditions: 1 mM ATP, 100 ng/mL TYK2. The method, then: as §1, §2, §3

The nature of the next data set: Hygroscopicity study. The data set is classed as physicochemical. Conditions: 25° C./75%-RH for 5 days.
Another data set has as its target T4, JAK3 (Homo sapiens, UniProt P52333).
T4 construct: purchased Carna Biosciences, Inc. 08-046
Put plainly: HTRF in vitro enzyme activity biochemical assay, JAK3. The note with it: 1 mM ATP, 37 ng/mL JAK3. How it is done: as §1, §2, §3

Setting [4] is: 40° C./60%-RH and 25° C./75%-RH, after 30 days.
Setting [5] is: listed as Free base of compound shown in formula I.

T2 sequence (P23458 866-1154 limits assumed): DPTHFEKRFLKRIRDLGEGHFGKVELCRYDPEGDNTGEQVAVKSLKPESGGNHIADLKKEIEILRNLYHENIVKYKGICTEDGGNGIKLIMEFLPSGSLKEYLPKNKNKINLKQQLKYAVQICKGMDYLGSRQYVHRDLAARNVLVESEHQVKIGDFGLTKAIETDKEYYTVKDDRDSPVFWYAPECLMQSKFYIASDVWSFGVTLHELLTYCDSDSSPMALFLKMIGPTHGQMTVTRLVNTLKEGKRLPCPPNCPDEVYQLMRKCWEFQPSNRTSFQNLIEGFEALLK
T4 sequence (P52333 795-1124 limits assumed): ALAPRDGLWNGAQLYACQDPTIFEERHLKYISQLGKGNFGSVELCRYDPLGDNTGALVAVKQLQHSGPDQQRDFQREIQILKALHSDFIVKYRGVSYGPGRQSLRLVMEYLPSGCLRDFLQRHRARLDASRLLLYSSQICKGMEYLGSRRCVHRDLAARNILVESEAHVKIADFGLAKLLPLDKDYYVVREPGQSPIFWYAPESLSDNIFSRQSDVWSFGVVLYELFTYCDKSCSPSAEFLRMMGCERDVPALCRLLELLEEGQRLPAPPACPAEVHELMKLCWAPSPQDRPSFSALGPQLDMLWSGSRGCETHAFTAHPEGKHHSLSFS
T1 sequence (O60674 826-1132 limits assumed): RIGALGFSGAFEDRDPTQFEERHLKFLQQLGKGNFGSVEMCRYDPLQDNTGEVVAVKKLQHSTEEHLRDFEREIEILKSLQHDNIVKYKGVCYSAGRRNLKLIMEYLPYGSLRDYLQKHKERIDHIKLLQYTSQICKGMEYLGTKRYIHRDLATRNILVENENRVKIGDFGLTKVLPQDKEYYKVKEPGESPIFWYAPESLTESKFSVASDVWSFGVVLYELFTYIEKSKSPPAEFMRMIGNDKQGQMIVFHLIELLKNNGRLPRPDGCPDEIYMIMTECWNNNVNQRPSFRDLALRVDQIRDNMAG

Regarding `O=C(Nc1cn2c(-c3ccc(CN4CCS(=O)(=O)CC4)cc3F)cccc2n1)C1CC1` [Crystal form A], the “Change in XRPD compared with initial crystal form” value in [1] (setting [4]) is on record as “no significant change”. In addition, the “Change in appearance compared with initial crystal form” value in data set [1] (setting [4]) is reported as “no significant change”. Further, the entries for the “Content of compound shown in formula I” value in data set [1] (initial), in data set [1] (placed at 25° C./75%-RH for 30 days) and in data set [1] (placed at 40° C./75%-RH for 30 days) were 99.901%, 99.899% and 99.905%, respectively. Besides, the half-inhibitory concentration (IC50) (in general, the concentration needed to halve the response being measured) against JAK2 was found to be 462 nM; against JAK1 it was 145 nM; at TYK2, 653 nM; on JAK3, 5.52 µM. Also, the “Crystal form of the solid after stirring in saturated solution (XRPD)” value (from here on “Crystal form of the solid after stirring”) in data set [2] is “still crystal form A”. Also, the Solubility in ethanol entry in data set [3] is “Soluble”. In addition, in [3], the Solubility in methanol result is given as “Very soluble”. Besides, the “Solubility in simulated gastric juice” value in data set [3] is given as “Sparingly soluble”. For the same molecule, in [3], the Solubility in water result was “Soluble”. For the same molecule, the Cmax – broadly, the maximum level reached in the sampled fluid or tissue – in “Single dose PK study” was determined as 456 ng/mL. Further, the AUClast in the data set “Single dose PK study” (up to 24 hours) amounted to 1390 ng·h/mL. Further, the Hygroscopic weight gain in “Hygroscopicity study” stood at 2.4%.

With `O=C(Nc1cn2c(-c3ccc(CN4CCS(=O)(=O)CC4)cc3F)cccc2n1)C1CC1` [Crystal form C], the Hygroscopic weight gain in the data set “Hygroscopicity study” is on record as 6.1%.

For the molecule `O=C(Nc1cn2c(-c3ccc(CN4CCS(=O)(=O)CC4)cc3F)cccc2n1)C1CC1` [Crystal form D], in “Hygroscopicity study”, the Hygroscopic weight gain came out at 8.1%.

Turning to `O=C(Nc1cn2c(-c3ccc(CN4CCS(=O)(=O)CC4)cc3F)cccc2n1)C1CC1` [Crystal form E], the “Crystal form of the solid after stirring” value in data set [2] was “transformed into crystal form A”. In the data set “Hygroscopicity study”, this molecule returned a Hygroscopic weight gain of 5.3%.

As for `O=C(Nc1cn2c(-c3ccc(CN4CCS(=O)(=O)CC4)cc3F)cccc2n1)C1CC1` [Crystal form F], the “Crystal form of the solid after stirring” value in data set [2] is listed as “transformed into crystal form A”. This molecule also displayed a Hygroscopic weight gain in “Hygroscopicity study” of 4.9%.

In the case of `O=C(Nc1cn2c(-c3ccc(CN4CCS(=O)(=O)CC4)cc3F)cccc2n1)C1CC1` [Free base], in data set [3] (setting [5]), the Solubility in ethanol entry is recorded as “Slightly soluble”, the Solubility in methanol result was “Slightly soluble”, the “Solubility in simulated gastric juice” value is reported as “Insoluble” and the Solubility in water entry is listed as “Very slightly soluble”. Also, the Cmax in “Single dose PK study” (female, SD, rat, po, 3 mg/kg, read-out: Cmax) is 352 ng/mL. The AUC(0-t) (commonly the area under the concentration-time curve up to a stated or last time point) in the data set “Single dose PK study” (female, SD, rat, po, 3 mg/kg, up to 24 hours) was 987 ng·h/mL.
